Measured values: patent US11925629B2, “Heterocyclic inhibitors of ERK1 and ERK2 and their use in the treatment of cancer” (Asana Biosciences, LLC, priority 2015, dated 2024)

Legend:
Type in all cases: cell-based, human
[1] = system: phosphorylation of RSK1(S380) (the downstream target of ERK1/2); experiment: Phospho-RSK1(S380) ELISA assay in HT-29 cells; conditions: Homo sapiens, HT-29, HT29 cells, phospho-RSK1(S380); read-out: Mechanistic Cell Assay RSK1 Phos HT29 IC50
In short: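 IC50 values derive from a variable-slope sigmoidal fit of sandwich-ELISA signal (450 nm) for RSK1 Ser380 phosphorylation. The cells were B-RafV600E HT-29 colorectal line, exposed to serially diluted compound for 2 h after overnight seeding, then lysed at 4° C.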

[2] = system: HCT116 (colorectal carcinoma, K Ras G13D) cells; experiment: Cell proliferation (Alamar Blue) assay, HCT116; conditions: Homo sapiens, HCT-116, HCT116 cells
In short: (§1)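 After overnight plating (16-24 h), cells were treated for 72 h with compound dilutions spanning roughly 0.0005 to 10 uM. Proliferation was measured by Alamar Blue fluorescence and IC50 values derived from variable-slope dose-response curves.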

[3] = system: HT-29 (colorectal carcinoma, B-RafV600E) cells; experiment: Cell proliferation (Alamar Blue) assay, HT-29; conditions: Homo sapiens, HT-29, HT29 cells
In short: as §1

SMILES	IC50 [1] [nM]	IC50 [2] [nM]	IC50 [3] [nM]
C#Cc1cccc(Nc2nccc(-n3cc(NC(=O)N[C@H](CO)c4cccc(Cl)c4)cn3)n2)c1 [Example 38, (S)-1-(1-(3-chlorophenyl)-2-hydroxy-ethyl)-3-(1-(2-((3-ethynyl-phenyl)amino)pyrimidin-4-yl)-1H-pyrazol-4-yl)urea]	> 2500	> 2500	> 2500
Cc1cnc(Nc2ccc3c(c2)OCO3)nc1-n1ccc(C(=O)NC(CO)c2cccc(Cl)c2)c1 (stereo not drawn) [Example 42, 1-(2-(benzo[d][1,3]dioxol-5-ylamino)-5-methyl-pyrimidin-4-yl)-N-(1-(3-chloro-phenyl)-2-hydroxy-ethyl)-1H-pyrrole-3-carboxamide]	500 to 2500	250 to 500	250 to 500
Cc1cnc(Nc2ccc3c(c2)OCO3)nc1-n1ccc(C(=O)NC(CO)c2ccccc2)c1 (stereo not drawn) [Example 47, 1-(2-(benzo[d][1,3]dioxol-5-ylamino)-5-methyl-pyrimidin-4-yl)-N-(2-hydroxy-1-phenylethyl)-1H-pyrrole-3-carboxamide]	250 to 500	250 to 500	100 to 250
Cc1cnc(Nc2ccc3c(c2)OCO3)nc1-n1cnc(C(=O)N[C@H](CO)c2cccc(Cl)c2)c1 [Example 48, (S)-1-(2-(benzo[d][1,3]dioxol-5-ylamino)-5-methyl-pyrimidin-4-yl)-N-(1-(3-chloro-phenyl)-2-hydroxy-ethyl)-1H-imidazole-4-carboxamide]	250 to 500	500 to 2500	250 to 500
Cc1cnc(Nc2ccc3c(c2)OCO3)nc1-n1ccc(C(=O)NC(CO)c2cc(Cl)cc(Cl)c2)c1 (stereo not drawn) [Example 58, 1-(2-(benzo[d][1,3]dioxol-5-ylamino)-5-methyl-pyrimidin-4-yl)-N-(1-(3,5-dichloro-phenyl)-2-hydroxy-ethyl)-1H-pyrrole-3-carboxamide]	500 to 2500	> 2500	500 to 2500
Cc1cnc(Nc2ccc3c(c2)OCO3)nc1-n1ccc(C(=O)N[C@H](CO)Cc2ccccc2)c1 [Example 59, (S)-1-(2-(benzo[d][1,3]dioxol-5-ylamino)-5-methyl-pyrimidin-4-yl)-N-(1-hydroxy-3-phenyl-propan-2-yl)-1H-pyrrole-3-carboxamide]	250 to 500	250 to 500	250 to 500
Cc1cnc(Nc2ccc3c(c2)OCO3)nc1-n1ccc(C(=O)N[C@H](CO)c2ccccc2)c1 [Example 60, (S)-1-(2-(benzo[d][1,3]dioxol-5-ylamino)-5-methyl-pyrimidin-4-yl)-N-(2-hydroxy-1-phenylethyl)-1H-pyrrole-3-carboxamide]	≤ 100	100 to 250	≤ 100
Cc1cnc(Nc2ccc3c(c2)OC(F)(F)O3)nc1-n1ccc(C(=O)NC(CO)c2cccc(Cl)c2)c1 (stereo not drawn) [Example 62, N-(1-(3-chloro-phenyl)-2-hydroxy-ethyl)-1-(2-((2,2-difluoro-benzo[d][1,3]dioxol-5-yl)amino)-5-methyl-pyrimidin-4-yl)-1H-pyrrole-3-carboxamide]	500 to 2500	500 to 2500	500 to 2500
Cc1cnc(Nc2ccc3c(c2)OC(F)(F)O3)nc1-n1ccc(C(=O)NC(CO)c2ccccc2)c1 (stereo not drawn) [Example 63, 1-(2-((2,2-difluoro-benzo[d][1,3]dioxol-5-yl)amino)-5-methyl-pyrimidin-4-yl)-N-(2-hydroxy-1-phenylethyl)-1H-pyrrole-3-carboxamide]	250 to 500	500 to 2500	500 to 2500
COC[C@@H](NC(=O)c1ccn(-c2nc(Nc3ccc4c(c3)OCO4)ncc2C)c1)c1ccccc1 [Example 64, (S)-1-(2-(benzo[d][1,3]dioxol-5-ylamino)-5-methyl-pyrimidin-4-yl)-N-(2-methoxy-1-phenylethyl)-1H-pyrrole-3-carboxamide]	500 to 2500	500 to 2500	250 to 500
Cc1cnc(Nc2ccc3occc3c2)nc1-n1ccc(C(=O)NC(CO)c2ccccc2)c1 (stereo not drawn) [Example 65, 1-(2-(benzo-furan-5-ylamino)-5-methyl-pyrimidin-4-yl)-N-(2-hydroxy-1-phenylethyl)-1H-pyrrole-3-carboxamide]	≤ 100	100 to 250	100 to 250
O=C(NC(CO)c1ccccc1)c1ccn(-c2nc(Nc3ccc4c(c3)OCO4)ncc2F)c1 (stereo not drawn) [Example 66, 1-(2-(benzo[d][1,3]dioxol-5-ylamino)-5-fluoro-pyrimidin-4-yl)-N-(2-hydroxy-1-phenylethyl)-1H-pyrrole-3-carboxamide]	100 to 250	500 to 2500	250 to 500
O=C(NC(CO)c1ccccc1)c1ccn(-c2nc(Nc3ccccc3Cl)ncc2F)c1 (stereo not drawn) [Example 67, 1-(2-((2-chloro-phenyl)amino)-5-fluoro-pyrimidin-4-yl)-N-(2-hydroxy-1-phenylethyl)-1H-pyrrole-3-carboxamide]	500 to 2500	> 2500	> 2500
Cc1cnc(Nc2ccc3c(c2)OC(F)(F)O3)nc1-n1ccc(C(=O)N[C@H](CO)c2ccc(F)c(Cl)c2)c1 [Example 69, (S)-N-(1-(3-chloro-4-fluoro-phenyl)-2-hydroxy-ethyl)-1-(2-((2,2-difluoro-benzo[d][1,3]dioxol-5-yl)amino)-5-methyl-pyrimidin-4-yl)-1H-pyrrole-3-carboxamide]	500 to 2500	500 to 2500	500 to 2500
Cc1cnc(Nc2ccc3c(c2)OCO3)nc1-n1ccc(C(=O)NC(CO)c2cccc(Cl)c2F)c1 (stereo not drawn) [Example 70, 1-(2-(benzo[d][1,3]dioxol-5-ylamino)-5-methyl-pyrimidin-4-yl)-N-(1-(3-chloro-2-fluorophenyl)-2-hydroxy-ethyl)-1H-pyrrole-3-carboxamide]	250 to 500	500 to 2500	> 2500
O=C(NC(CO)c1ccccc1)c1ccn(-c2ccnc(Nc3ccccc3)c2)c1 (stereo not drawn) [Example 71, N-(2-hydroxy-1-phenylethyl)-1-(2-(phenylamino)pyridin-4-yl)-1H-pyrrole-3-carboxamide]	250 to 500	> 2500	500 to 2500
O=C(N[C@H](CO)c1cccc(Cl)c1)c1cn(-c2ccnc(Nc3ccccc3)c2)cn1 [Example 72, (S)-N-(1-(3-chlorophenyl)-2-hydroxy-ethyl)-1-(2-(phenylamino)pyridin-4-yl)-1H-imidazole-4-carboxamide]	≤ 100	> 2500	500 to 2500
Cc1cnc(Nc2ccc(N3CCNCC3)cc2)nc1-n1ccc(C(=O)NC(CO)c2ccccc2)c1 (stereo not drawn) [Example 73, N-(2-hydroxy-1-phenylethyl)-1-(5-methyl-2-((4-(piperazin-1-yl)-phenyl)amino)pyrimidin-4-yl)-1H-pyrrole-3-carboxamide]	> 2500	500 to 2500	500 to 2500
CC[C@@H](CO)Nc1ncc(C)c(-n2ccc(C(=O)NC(CO)c3ccccc3)c2)n1 (stereo partly drawn) [Example 75, N-(2-hydroxy-1-phenylethyl)-1-(2-(((S)-1-hydroxy-butan-2-yl)amino)-5-methyl-pyrimidin-4-yl)-1H-pyrrole-3-carboxamide]	500 to 2500	> 2500	500 to 2500
O=C(NC(CO)c1ccccc1)c1ccn(-c2ccnc(Nc3ccc4c(c3)OCO4)c2)c1 (stereo not drawn) [Example 76, 1-(2-(benzo[d][1,3]dioxol-5-ylamino)pyridin-4-yl)-N-(2-hydroxy-1-phenylethyl)-1H-pyrrole-3-carboxamide]	250 to 500	> 2500	500 to 2500
